Laboratory results taken from US7238694B2, “Rifamycin imino derivatives effective against drug-resistant microbes” (Cumbre Pharmaceuticals, Inc., priority 2004, dated 2007).
≈ marks a conversion by molar mass, not a printed value.

What was measured:
Type in all cases: cell-based
[1] = system: Staphylococcus aureus ATCC29213; assay: MIC, microbroth dilution (NCCLS); conditions: rifS strain, Cation-Adjusted Mueller-Hinton Broth, 37° C., read-out: MIC
[2] = system: Staphylococcus aureus MT1222 gyrA^A116E grlB^S80F; assay: microbe, parasite or virus in culture; conditions: cipR strain, Cation-Adjusted Mueller-Hinton Broth, 37° C., read-out: MIC
[3] = system: Staphylococcus aureus ATCC29213 rpoB^H418Y; assay: microbe, parasite or virus in culture; conditions: Staphylococcus aureus, ATCC29213; rifR strain; Cation-Adjusted Mueller-Hinton Broth, 37° C.; read-out: MIC
[4] = system: Staphylococcus epidermidis ATCC12228; assay: MIC, microbroth dilution (NCCLS); conditions: rifS strain, Cation-Adjusted Mueller-Hinton Broth, 37° C., read-out: MIC
[5] = system: Streptococcus pyogenes ATCC19615; assay: MIC, microbroth dilution (NCCLS); conditions: rifS strain, THY Broth, 37° C., read-out: MIC
[6] = system: Streptococcus pneumoniae ATCC6303; assay: MIC, microbroth dilution (NCCLS); conditions: rifS strain, THY Broth with 1 mg/mL catalase, 5% CO2, 37° C., read-out: MIC
[7] = system: Haemophilus influenzae ATCC10211; assay: MIC, microbroth dilution (NCCLS); conditions: rifS strain, BHI Broth with NAD and hematin, 37° C., read-out: MIC

SMILES | MIC [1] [µg/mL] | MIC [2] [µg/mL] | MIC [3] [µg/mL] | MIC [4] [µg/mL] | MIC [5] [µg/mL] | MIC [6] [µg/mL] | MIC [7] [µg/mL]
CO[C@H]1/C=C/O[C@@]2(C)Oc3c(C)c(O)c4c(c3C2=O)C(=O)C(/C=N/N2CCN(c3cc5c(cc3F)c(=O)c(C(=O)O)cn5C3CC3)CC2)=C(NC(=O)/C(C)=C\C=C\[C@H](C)[C@H](O)[C@@H](C)[C@@H](O)[C@@H](C)[C@H](OC(C)=O)[C@@H]1C)C4=O [Example 5, 3-[4-(3-Carboxy-1-cyclopropl-6-fluoro-4-oxo-1,4-dihydroquinolin-7-yl)-piperazin-1-yl-aminomethylenyl]rifamycin S] | 0.008 to 1 (≈ 0.0076 to 0.95 µM) | 0.008 to 0.125 (≈ 0.0076 to 0.119 µM) | 0.06 to 16 (≈ 0.057 to 15.2 µM) | 0.008 to 0.1 (≈ 0.0076 to 0.095 µM) | 0.008 to 0.03 (≈ 0.0076 to 0.0285 µM) | 0.008 to 0.06 (≈ 0.0076 to 0.057 µM) | 0.125 to 4 (≈ 0.119 to 3.8 µM)
CO[C@H]1/C=C/O[C@@]2(C)Oc3c(C)c(O)c4c(O)c(c(/C=N/N(C5CCN(C)CC5)C5CCN(c6cc7c(cc6F)c(=O)c(C(=O)O)cn7C6CC6)C5)c(O)c4c3C2=O)NC(=O)/C(C)=C\C=C\[C@H](C)[C@H](O)[C@@H](C)[C@@H](O)[C@@H](C)[C@H](OC(C)=O)[C@@H]1C (mixture of isomers) [Example 11, (R/S)-3-[1-(3-Carboxy-1-cyclopropyl-6-fluoro-4-oxo-1,4-dihydroquinolin-7-yl)-pyrrolidin-3-yl-N′-(1-methyl-piperidin-4-yl)-hydrazinomethylenyl]rifamycin SV] | 0.008 to 1 (≈ 0.00695 to 0.869 µM) | 0.008 to 0.125 (≈ 0.00695 to 0.109 µM) | 0.06 to 16 (≈ 0.0521 to 13.9 µM) | 0.008 to 0.1 (≈ 0.00695 to 0.0869 µM) | 0.008 to 0.03 (≈ 0.00695 to 0.0261 µM) | 0.008 to 0.06 (≈ 0.00695 to 0.0521 µM) | 0.125 to 4 (≈ 0.109 to 3.47 µM)
COc1c(N2CCC(C3(N4CCN(/N=C/c5c6c(O)c7c(O)c(C)c8c(c7c5O)C(=O)[C@@](C)(O/C=C/[C@H](OC)[C@@H](C)[C@@H](OC(C)=O)[C@H](C)[C@H](O)[C@H](C)[C@@H](O)[C@@H](C)/C=C/C=C(/C)C(=O)N6)O8)CC4)CC3)C2)c(F)cc2c(=O)c(C(=O)O)cn(C3CC3)c12 (mixture of isomers) [Example 37, (R/S)-3-{4-[1-(3-Carboxy-1-cyclopropyl-6-fluoro-8-methoxy-4-oxo-1,4-dihydroquinoline-7-yl)-pyrrolidin-3-yl-cyclopropyl]-piperazin-1-yl-aminomethylenyl}-rifamycin SV] | 0.008 to 1 (≈ 0.0067 to 0.838 µM) | 0.008 to 0.125 (≈ 0.0067 to 0.105 µM) | 0.06 to 16 (≈ 0.0503 to 13.4 µM) | 0.008 to 0.1 (≈ 0.0067 to 0.0838 µM) | 0.008 to 0.03 (≈ 0.0067 to 0.0251 µM) | 0.008 to 0.06 (≈ 0.0067 to 0.0503 µM) | 0.125 to 4 (≈ 0.105 to 3.35 µM)
CO[C@H]1/C=C/O[C@@]2(C)Oc3c(C)c(O)c4c(O)c(c(/C=N/N5CCC(NC6(C7CCN(c8c(F)cc9c(=O)c(C(=O)O)cn(C%10CC%10)c9c8Cl)C7)CC6)CC5)c(O)c4c3C2=O)NC(=O)/C(C)=C\C=C\[C@H](C)[C@H](O)[C@@H](C)[C@@H](O)[C@@H](C)[C@H](OC(C)=O)[C@@H]1C (mixture of isomers) [Example 45, (R/S)-3-[4-[1-[1-(3-Carboxy-1-cyclopropyl-7-fluoro-8-chloro-4-oxo-4H-quinolin-7-yl)pyrrolidin-3-yl]cycloprop-1-ylamino]piperidin-1-ylaminomethylenyl]rifamycin SV] | 0.008 to 1 (≈ 0.0066 to 0.825 µM) | 0.008 to 0.125 (≈ 0.0066 to 0.103 µM) | 0.06 to 16 (≈ 0.0495 to 13.2 µM) | 0.008 to 0.1 (≈ 0.0066 to 0.0825 µM) | 0.008 to 0.03 (≈ 0.0066 to 0.0248 µM) | 0.008 to 0.06 (≈ 0.0066 to 0.0495 µM) | 0.125 to 4 (≈ 0.103 to 3.3 µM)
COc1c(N2CCC(N(C)/N=C/c3c4c(O)c5c(O)c(C)c6c(c5c3O)C(=O)[C@@](C)(O/C=C/[C@H](OC)[C@@H](C)[C@@H](OC(C)=O)[C@H](C)[C@H](O)[C@H](C)[C@@H](O)[C@@H](C)/C=C/C=C(/C)C(=O)N4)O6)C2)c(F)cc2c(=O)c(C(=O)O)cn(C3CC3)c12 (mixture of isomers) [Example 22, (R/S)-3-[1-(3-Carboxy-1-cyclopropyl-6-fluoro-8-methoxy-4-oxo-1,4-dihydroquinolin-7-yl)-pyrrolidinyl-3-methylhydrazino-methylenyl]-rifamycin SV] | 0.008 to 1 (≈ 0.00728 to 0.911 µM) | 0.008 to 0.125 (≈ 0.00728 to 0.114 µM) | 0.06 to 16 (≈ 0.0546 to 14.6 µM) | 0.008 to 0.1 (≈ 0.00728 to 0.0911 µM) | 0.008 to 0.03 (≈ 0.00728 to 0.0273 µM) | 0.008 to 0.06 (≈ 0.00728 to 0.0546 µM) | 0.125 to 4 (≈ 0.114 to 3.64 µM)
COc1c(N2CCN(C(=O)C3CCN(/N=C/c4c5c(O)c6c(O)c(C)c7c(c6c4O)C(=O)[C@@](C)(O/C=C/[C@H](OC)[C@@H](C)[C@@H](OC(C)=O)[C@H](C)[C@H](O)[C@H](C)[C@@H](O)[C@@H](C)/C=C/C=C(/C)C(=O)N5)O7)CC3)CC2)c(F)cc2c(=O)c(C(=O)O)cn(C3CC3)c12 [Example 32, 3-{4-[4-(3-Carboxy-1-cyclopropyl-6-fluoro-8-methoxy-4-oxo-1,4-dihydroquinolin-7-yl)-piperazine-1-yl-carbonyl]-piperidin-1-yl-aminomethylenyl}-rifamycin SV] | 0.008 to 1 (≈ 0.00669 to 0.837 µM) | 0.008 to 0.125 (≈ 0.00669 to 0.105 µM) | 0.06 to 16 (≈ 0.0502 to 13.4 µM) | 0.008 to 0.1 (≈ 0.00669 to 0.0837 µM) | 0.008 to 0.03 (≈ 0.00669 to 0.0251 µM) | 0.008 to 0.06 (≈ 0.00669 to 0.0502 µM) | 0.125 to 4 (≈ 0.105 to 3.35 µM)
COc1c(N2CCC(N3CCN(/N=C/c4c5c(O)c6c(O)c(C)c7c(c6c4O)C(=O)[C@@](C)(O/C=C/[C@H](OC)[C@@H](C)[C@@H](OC(C)=O)[C@H](C)[C@H](O)[C@H](C)[C@@H](O)[C@@H](C)/C=C/C=C(/C)C(=O)N5)O7)CC3)CC2)c(F)cc2c(=O)c(C(=O)O)cn(C3CC3)c12 [Example 27, 3-{4-[1-(3-Carboxy-1-cyclopropyl-6-fluoro-8-methoxy-4-oxo-1,4-dihydroquinolin-7-yl)-piperidin-4-yl]-piperazin-1-yl-aminomethylenyl}-rifamycin SV] | 0.008 to 1 (≈ 0.00685 to 0.857 µM) | 0.008 to 0.125 (≈ 0.00685 to 0.107 µM) | 0.06 to 16 (≈ 0.0514 to 13.7 µM) | 0.008 to 0.1 (≈ 0.00685 to 0.0857 µM) | 0.008 to 0.03 (≈ 0.00685 to 0.0257 µM) | 0.008 to 0.06 (≈ 0.00685 to 0.0514 µM) | 0.125 to 4 (≈ 0.107 to 3.43 µM)
COc1c(N2CCC(N(Cc3ccccn3)/N=C/c3c4c(O)c5c(O)c(C)c6c(c5c3O)C(=O)[C@@](C)(O/C=C/[C@H](OC)[C@@H](C)[C@@H](OC(C)=O)[C@H](C)[C@H](O)[C@H](C)[C@@H](O)[C@@H](C)/C=C/C=C(/C)C(=O)N4)O6)C2)c(F)cc2c(=O)c(C(=O)O)cn(C3CC3)c12 (mixture of isomers) [Example 30, (R/S)-3-[1-(3-carboxy-1-cyclopropyl-6-fluoro-8-methoxy-4-oxo-1,4-dihydroquinolin-7-yl)-pyrrolidinyl-3-(pyridin-2-ylmethyl)hydrazino-methylenyl]-rifamycin SV] | 0.008 to 1 (≈ 0.00681 to 0.851 µM) | 0.008 to 0.125 (≈ 0.00681 to 0.106 µM) | 0.06 to 16 (≈ 0.0511 to 13.6 µM) | 0.008 to 0.1 (≈ 0.00681 to 0.0851 µM) | 0.008 to 0.03 (≈ 0.00681 to 0.0255 µM) | 0.008 to 0.06 (≈ 0.00681 to 0.0511 µM) | 0.125 to 4 (≈ 0.106 to 3.4 µM)
COc1c(N2CCC(C(C)NC3CCN(/N=C/c4c5c(O)c6c(O)c(C)c7c(c6c4O)C(=O)[C@@](C)(O/C=C/[C@H](OC)[C@@H](C)[C@@H](OC(C)=O)[C@H](C)[C@H](O)[C@H](C)[C@@H](O)[C@@H](C)/C=C/C=C(/C)C(=O)N5)O7)CC3)C2)c(F)cc2c(=O)c(C(=O)O)cn(C3CC3)c12 (mixture of isomers) [Example 41, 3-{4-[1-(3-Carboxy-1-cyclopropyl-6-fluoro-8-methoxy-4-oxo-1,4-dihydroquinolin-7-yl)-pyrrolidin-3-yl-ethylamino]-piperidin-1-yl-aminomethylenyl}-rifamycin SV] | 0.008 to 1 | 0.008 to 0.125 | 0.06 to 16 | 0.008 to 0.1 | 0.008 to 0.03 | 0.008 to 0.06 | 0.125 to 4
CO[C@H]1/C=C/O[C@@]2(C)Oc3c(C)c(O)c4c(O)c(c(/C=N/NC5CCN(c6nc7c(cc6F)c(=O)c(C(=O)O)cn7-c6ccc(F)cc6F)C5)c(O)c4c3C2=O)NC(=O)/C(C)=C\C=C\[C@H](C)[C@H](O)[C@@H](C)[C@@H](O)[C@@H](C)[C@H](OC(C)=O)[C@@H]1C (mixture of isomers) [Example 9, (R/S)-3-[1-[3-Carboxy-1-(2,4-difluoro-phenyl)-6-fluoro-4-oxo-1,4-dihydro-[1,8]naphthyridin-7-yl]-pyrrolidinyl-3-hydrazinomethylenyl]rifamycin SV] | 0.008 to 1 (≈ 0.0071 to 0.887 µM) | 0.008 to 0.125 (≈ 0.0071 to 0.111 µM) | 0.06 to 16 (≈ 0.0532 to 14.2 µM) | 0.008 to 0.1 (≈ 0.0071 to 0.0887 µM) | 0.008 to 0.03 (≈ 0.0071 to 0.0266 µM) | 0.008 to 0.06 (≈ 0.0071 to 0.0532 µM) | 0.125 to 4 (≈ 0.111 to 3.55 µM)
CO[C@H]1/C=C/O[C@@]2(C)Oc3c(C)c(O)c4c(O)c(c(/C=N/N5CCC(C(=O)NC6CCN(c7c(F)cc8c(=O)c(C(=O)O)cn(C9CC9)c8c7Cl)C6)CC5)c(O)c4c3C2=O)NC(=O)/C(C)=C\C=C\[C@H](C)[C@H](O)[C@@H](C)[C@@H](O)[C@@H](C)[C@H](OC(C)=O)[C@@H]1C (mixture of isomers) [Example 31, (R/S)-3-{4-[1-(3-Carboxy-8-chloro-1-cyclopropyl-6-fluoro-4-oxo-1,4-dihydroquinolin-7-yl)-pyrrolidin-3-ylcarbamoyl]-piperidin-1-yl-aminomethylenyl}-rifamycin SV] | 0.008 to 1 (≈ 0.00667 to 0.834 µM) | 0.008 to 0.125 (≈ 0.00667 to 0.104 µM) | 0.06 to 16 (≈ 0.05 to 13.3 µM) | 0.008 to 0.1 (≈ 0.00667 to 0.0834 µM) | 0.008 to 0.03 (≈ 0.00667 to 0.025 µM) | 0.008 to 0.06 (≈ 0.00667 to 0.05 µM) | 0.125 to 4 (≈ 0.104 to 3.33 µM)
